Assay results as given in US10933075B2, “Materials and methods for suppressing and/or treating bacterial infections and related symptoms” (Indiana University Research and Technology Corporation, priority 2017, dated 2021).

Columns and labels:
[1] = in vivo; cited from earlier work
[2] = tested on: SaeRS two component system (P1 promoter); assay: pYJ-P1-GFP reporter, Sae activity (P1 promoter activity); format: cell-based, S. aureus strain USA300; conditions: grown in TSB for 3 h, various concentrations (FIG. 3B)
Procedure: FIG. 3B. Graph illustrating the effect of three compounds on Sae activity of Staphylococcus aureus. Cells were grown in TSB for 3 hours in the presence of the compounds (e.g., Streptozotocin, Floxuridine, and Doxorubicin) using various concentrations as indicated. The P1 promoter has two SaeR binding sites and its activity is an excellent indicator for the Sae activity.
The sae operon consists of four genes (saeP, saeQ, saeR, and saeS), and the two promoters P1 and P3. The P1 promoter resides in the front of the very first gene saeP and can transcribe all four genes. The P1 promoter has two SaeR binding sequences (SBSs). The P1 promoter in front of the sae operon is well characterized target of the SaeRS two component system. Here, the reporter plasmid pYJ-P1-GFP was used in the library screening and the expression level of GFP was interpreted as the Sae activity.
(§1) In the library screening, S. aureus strain USA300 was grown with pYJ-P1-GFP in the presence of 10 μM test compound for 3 hours. Then the effects of the each drug on growth and GFP expression were measured. In the primary screening, about 9,000 test compounds (3,000 FDA-approved drugs, 6,000 DCL library compounds) were tested.
(§2) Referring now to FIGS. 3A and 3B, the effects of the three compounds on growth (A) and Sae activity (B) of Staphylococcus aureus were measured. The cells were grown in TSB for 3 h in the presence of the compounds with various concentrations as indicated.

Staphylococcus aureus = assay: Effect on growth of Staphylococcus aureus; format: cell-based; conditions: grown in TSB for 3 h, various concentrations (FIG. 3A)
Procedure: FIG. 3A. Graph illustrating the effect of three compounds on growth of Staphylococcus aureus. Cells were grown in TSB for 3 hours in the presence of the compounds (e.g., Streptozotocin, Floxuridine, and Doxorubicin) using various concentrations as indicated.
as §1, §2

S. aureus USA300 = assay: Murine model of peritoneal infection (survival, anti-virulence effect); format: in vivo, mice; conditions: for anti-virulence activity against S. aureus infection in mice (percent survival): S. aureus 2×10^8 CFU i.p., n=10-18 (FIGS. 4-6); for anti-virulence effect: mice i.p. infected with S. aureus USA300, 50 μg i.p. once every day for 7 days, from one hour post infection; for anti-virulence effect, confirmation by repeating the mouse experiment: repeat of the mouse experiment; for in vivo efficacy, dose dependence: administered after infection for 7 days (FIG. 7)
Procedure: FIG. 4. Effect of Streptozotocin on survival. […] Open circles represent percent survival of treated mice (i.e., steptozotocin) after the indicated period. Closed circles represent percent survival of untreated mice (i.e., control). S. aureus (2×10^8 CFU) were i.p. injected into mice (n=10-18).
In this model, mice were i.p. infected with S. aureus USA300. One hour post infection, the test compounds were administered via i.p. injection once every day for 7 days.
To determine the minimal dosage of the compounds for their protective effect, a different amount of the compounds (0-100 μg) were administered after S. aureus infection for 7 days as described above.
The biological half-life of streptozotocin is about 35-40 min. […] Although we administered the compounds every day for 7 days, due to their short half-lives, it is likely that S. aureus cells were exposed to the compounds only briefly. […] To examine the hypothesis, after 2 h post infection with S. aureus, we administered the compounds only once (25 μg for streptozotocin and floxuridine; 50 μg for doxorubicin) and watched the infected mice for 7 days.

[3] = tested on: Agr quorum sensing system, Arl two-component system, SarA DNA binding protein; assay: qRT-PCR of agrC, arlS, sarA transcription normalized by gyrB; format: cell-based, S. aureus USA300; conditions: 1 μg/mL (=3.8 μM for streptozotocin, 4 μM for floxuridine), 3 h (FIG. 9)
Procedure: FIG. 9. Streptozotocin (SZ) and floxuridine (FU) repress other signalling systems critical for staphylococcal virulence. The transcription level of the indicated genes was analyzed by qRT-PCR and normalized by the transcription level of gyrB. agrC, the gene of the sensor kinase of the Agr quorum sensing system; arlS, the gene of the sensor kinase of the Arl two componenet system; sarA, the gene of the DNA binding protein SarA; NT, no treatment.
The virulence of S. aureus is thought to be controlled by multiple signaling systems. Along with the Sae signaling system, the Agr quorum sensing system, Arl two-component system, and SarA DNA binding protein are known to contribute to staphylococcal virulence. To explain the high in vivo efficacy of streptozotocin and floxuridine, S. aureus USA300 was treated with 1 μg/mL (=3.8 μM for streptozotocin, 4 μM for floxuridine) for 3 h, purified total RNA and carried out qRT-PCR.

| Compound | Sae activity (P1 promoter activity) [2] | growth of Staphylococcus aureus (Staphylococcus aureus) | anti-virulence activity against S. aureus infection in mice (percent survival) (S. aureus USA300) | anti-virulence effect (S. aureus USA300) | anti-virulence effect, confirmation by repeating the mouse experiment (S. aureus USA300) | transcription level of agrC, arlS, sarA (signaling systems critical for virulence) [3] | other results |
| --- | --- | --- | --- | --- | --- | --- | --- |
| O=c1[nH]cc(F)c(=O)[nH]1 [5-FU, 5′fluorouracil] |  |  |  |  |  |  | half-life [1]: 8 to 14 min |
| COc1cccc2c1C(=O)c1c(O)c3c(c(O)c1C2=O)C[C@@](O)(C(=O)CO)C[C@@H]3O[C@H]1C[C@H](N)[C@H](O)[C@H](C)O1 [Doxorubicin] | reduced P1 promoter activity | reduced growth | exhibited anti-virulence activity | anti-virulence effect | significant anti-virulence effect |  |  |
| O=C1OC2(c3ccccc31)c1cc(I)c(O)c(I)c1Oc1c2cc(I)c(O)c1I [Erythrosine sodium] |  |  |  | anti-virulence effect |  |  |  |
| O=c1[nH]c(=O)n([C@H]2C[C@H](O)[C@@H](CO)O2)cc1F [Floxuridine] | reduced P1 promoter activity | reduced growth | exhibited anti-virulence activity | anti-virulence effect | significant anti-virulence effect | inhibit multiple signaling systems | in vivo efficacy, dose dependence (S. aureus USA300; 10 μg): statistically significant in vivo efficacy; catabolism [1]: rapidly catabolized to 5′fluorouracil |
| CC(=O)[C@H]1CC[C@H]2[C@@H]3CC=C4C[C@@H](OC(=O)CCC(=O)O)CC[C@]4(C)[C@H]3CC[C@]12C [Pregnenolone succinate] |  |  |  | anti-virulence effect |  |  |  |
| CN(N=O)C(=O)NC1C(O)[C@H](O)C(CO)O[C@H]1O (stereo partly shown) [Streptozotocin] | reduced P1 promoter activity | reduced growth | exhibited anti-virulence activity | anti-virulence effect | significant anti-virulence effect | inhibit multiple signaling systems | in vivo efficacy, dose dependence (S. aureus USA300; 5 μg): statistically significant in vivo efficacy; in vivo efficacy, dose dependence (S. aureus USA300; 10-100 μg): comparable in vivo efficacy; biological half-life [1]: 35-40 min |
